# Data reported in ChEMBL document CHEMBL2021790, “Pyridone methylsulfone hydroxamate LpxC inhibitors for the treatment of serious gram-negative infections” (J Med Chem, 2012).
# Key:
# Klebsiella pneumoniae = assay: microbe, parasite or virus in culture
# Description: Antimicrobial activity against Klebsiella pneumoniae after 16 to 20 hrs by 2-fold microbroth dilution method
# Klebsiella aerogenes = assay: microbe, parasite or virus in culture
# Description: Antimicrobial activity against Enterobacter aerogenes after 16 to 20 hrs by 2-fold microbroth dilution method
# Acinetobacter sp. = assay: Antimicrobial activity against Acinetobacter sp. after 16 to 20 hrs by 2-fold microbroth dilution method; format: functional
# Pseudomonas aeruginosa [1] = assay: microbe, parasite or virus in culture
# Description: Antimicrobial activity against Pseudomonas aeruginosa after 16 to 20 hrs by 2-fold microbroth dilution method
# Escherichia coli = assay: microbe, parasite or virus in culture
# Description: Antimicrobial activity against Escherichia coli after 16 to 20 hrs by 2-fold microbroth dilution method
# Citrobacter freundii = assay: microbe, parasite or virus in culture
# Description: Antimicrobial activity against Citrobacter freundii after 16 to 20 hrs by 2-fold microbroth dilution method
# Pseudomonas aeruginosa [2] = assay: Antimicrobial activity against wild type Pseudomonas aeruginosa PA01 after 16 to 20 hrs by 2-fold microbroth dilution method; format: functional
# [3] = target: T1, UDP-3-O-acyl-N-acetylglucosamine deacetylase (Pseudomonas aeruginosa (strain ATCC 15692 / PAO1 / 1C / PRS 101 / LMG12228), UniProt P47205); assay: Inhibition of Pseudomonas aeruginosa LpxC expressed in Escherichia coli using UDP-3-O-N-acetylglucosamine substrate measured after 30 mins by mass spectrometry
# T1 sequence (P47205 whole entry): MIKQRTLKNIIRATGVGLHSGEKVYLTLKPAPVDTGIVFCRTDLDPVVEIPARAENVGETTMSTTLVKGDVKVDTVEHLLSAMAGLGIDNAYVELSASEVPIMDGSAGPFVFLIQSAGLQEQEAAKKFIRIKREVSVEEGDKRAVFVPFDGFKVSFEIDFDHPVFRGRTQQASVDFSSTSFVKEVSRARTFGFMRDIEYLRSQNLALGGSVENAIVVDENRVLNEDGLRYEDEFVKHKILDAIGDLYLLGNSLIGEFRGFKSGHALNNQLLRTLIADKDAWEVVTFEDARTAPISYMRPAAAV
# Pseudomonas aeruginosa [4] = assay: Antimicrobial activity against Pseudomonas aeruginosa PA3919 with (delta(mexAB-OprM)delta(mexXY)delta(MexZ) phenotype after 16 to 20 hrs by 2-fold microbroth dilution method; format: functional
SMILES,MIC90 (Klebsiella pneumoniae),MIC90 (Klebsiella aerogenes),MIC90 (Acinetobacter sp.),MIC90 (Pseudomonas aeruginosa [1]),MIC90 (Escherichia coli),MIC90 (Citrobacter freundii),MIC (Pseudomonas aeruginosa [2]),IC50 [3],MIC (Pseudomonas aeruginosa [4])
C[C@@](CCn1ccc(-c2ccc(Cl)c(F)c2F)cc1=O)(C(=O)NO)S(C)(=O)=O,0.5 µg/mL,0.25 µg/mL,> 64 µg/mL,0.25 µg/mL,0.06 µg/mL,0.25 µg/mL,0.125 µg/mL,0.52 nM,0.008 µg/mL
Cc1cn(CC[C@](C)(C(=O)NO)S(C)(=O)=O)c(=O)cc1-c1ccccc1,–,–,–,–,–,–,8 µg/mL,30 nM,0.125 µg/mL
Cc1ccn(CC[C@](C)(C(=O)NO)S(C)(=O)=O)c(=O)c1,–,–,–,–,–,–,64 µg/mL,> 100 nM,8 µg/mL
O=C(O)c1cn(C2CC2)c2cc(N3CCNCC3)c(F)cc2c1=O [CIPROFLOXACIN],64 µg/mL,1 µg/mL,64 µg/mL,64 µg/mL,> 64 µg/mL,32 µg/mL,–,–,–
CC(CCc1ccc(-c2ccccc2)cn1)(C(=O)NO)S(C)(=O)=O (racemic),–,–,–,–,–,–,4 µg/mL,13 nM,0.125 µg/mL
C[C@@](CCn1ccc(-c2cccc(F)c2)cc1=O)(C(=O)NO)S(C)(=O)=O,–,–,–,–,–,–,0.5 µg/mL,3 nM,0.015 µg/mL
C[C@@](CCn1ccc(-c2ccc(-c3nccs3)cc2)cc1=O)(C(=O)NO)S(C)(=O)=O,–,–,–,–,–,–,0.25 µg/mL,1.1 nM,0.015 µg/mL
C[C@@](CCn1ccc(-c2ccc(-c3ccncc3)cc2)cc1=O)(C(=O)NO)S(C)(=O)=O,–,–,–,–,–,–,0.5 µg/mL,1.2 nM,0.03 µg/mL
C[C@@](CCn1ccc(-c2cc(F)cc(F)c2)cc1=O)(C(=O)NO)S(C)(=O)=O,–,–,–,–,–,–,1 µg/mL,3.9 nM,0.03 µg/mL
C[C@@](CCn1cnc(-c2ccccc2)cc1=O)(C(=O)NO)S(C)(=O)=O,16 µg/mL,16 µg/mL,64 µg/mL,4 µg/mL,8 µg/mL,16 µg/mL,1 µg/mL,8.5 nM,0.03 µg/mL
C[C@@](CCn1ccc(CCc2ccccc2)cc1=O)(C(=O)NO)S(C)(=O)=O,–,–,–,–,–,–,2 µg/mL,6 nM,0.03 µg/mL
Cc1cccc(C)c1-c1ccn(CC[C@](C)(C(=O)NO)S(C)(=O)=O)c(=O)c1,–,–,–,–,–,–,64 µg/mL,> 87 nM,2 µg/mL
CC(CCn1ccc(C2CCCCC2)cc1=O)(C(=O)NO)S(C)(=O)=O (racemic),–,–,–,–,–,–,2 µg/mL,11 nM,0.06 µg/mL
CC(CCc1ccc(-c2ccccc2)nc1)(C(=O)NO)S(C)(=O)=O (racemic),–,–,–,–,–,–,8 µg/mL,49 nM,0.25 µg/mL
C[C@H]1[C@H](NC(=O)/C(=N\OC(C)(C)C(=O)O)c2csc(N)n2)C(=O)N1S(=O)(=O)O [AZTREONAM],> 64 µg/mL,32 µg/mL,32 µg/mL,64 µg/mL,> 64 µg/mL,> 64 µg/mL,–,–,–
C[C@@](CCn1ccc(-c2ccccn2)cc1=O)(C(=O)NO)S(C)(=O)=O,–,–,–,–,–,–,4 µg/mL,60 nM,0.25 µg/mL
C[C@@](CCn1ccc(C2=CCCCC2)cc1=O)(C(=O)NO)S(C)(=O)=O,–,–,–,–,–,–,0.5 µg/mL,4.1 nM,0.03 µg/mL
COc1ccc(-c2ccn(CC[C@](C)(C(=O)NO)S(C)(=O)=O)c(=O)c2)cc1,–,–,–,–,–,–,0.125 µg/mL,–,0.008 µg/mL
CC(CCc1ccc(-c2ccccc2)nc1O)(C(=O)NO)S(C)(=O)=O (racemic),–,–,–,–,–,–,32 µg/mL,53 nM,1 µg/mL
C[C@@](CCn1ccc(-c2ccccc2F)cc1=O)(C(=O)NO)S(C)(=O)=O,–,–,–,–,–,–,0.25 µg/mL,2.2 nM,0.015 µg/mL
COc1cnc(-c2ccc(-c3ccn(CC[C@](C)(C(=O)NO)S(C)(=O)=O)c(=O)c3)cc2)nc1,–,–,–,–,–,–,0.25 µg/mL,1.2 nM,0.03 µg/mL

SMILES,MIC90 (Klebsiella pneumoniae),MIC90 (Klebsiella aerogenes),MIC90 (Acinetobacter sp.),MIC90 (Pseudomonas aeruginosa [1]),MIC90 (Escherichia coli),MIC90 (Citrobacter freundii),MIC (Pseudomonas aeruginosa [2]),IC50 [3],MIC (Pseudomonas aeruginosa [4])
C[C@@](CCn1ccc(-c2cc(F)ccc2F)cc1=O)(C(=O)NO)S(C)(=O)=O,–,–,–,–,–,–,1 µg/mL,4.4 nM,0.03 µg/mL
C[C@@](CCn1ccc(/C=C/c2ccccc2)cc1=O)(C(=O)NO)S(C)(=O)=O,–,–,–,–,–,–,0.5 µg/mL,3.2 nM,0.03 µg/mL
C[C@@](CCn1ccc(-c2ccc(-c3ccon3)cc2)cc1=O)(C(=O)NO)S(C)(=O)=O,–,–,–,–,–,–,0.25 µg/mL,1.1 nM,0.015 µg/mL
Cc1cc(-c2ccccc2)cc(=O)n1CC[C@](C)(C(=O)NO)S(C)(=O)=O,–,–,–,–,–,–,4 µg/mL,22 nM,0.125 µg/mL
C[C@@](CCn1ccc(-c2ccncc2)cc1=O)(C(=O)NO)S(C)(=O)=O,–,–,–,–,–,–,32 µg/mL,39 nM,0.5 µg/mL
C[C@@](CCn1ccc(-c2ccc(F)cc2)cc1=O)(C(=O)NO)S(C)(=O)=O,–,–,–,–,–,–,0.25 µg/mL,2.9 nM,0.008 µg/mL
CC(C)(C)c1ccn(CC[C@](C)(C(=O)NO)S(C)(=O)=O)c(=O)c1,–,–,–,–,–,–,8 µg/mL,69 nM,0.25 µg/mL
C[C@@](CCn1ccc(-c2c(F)cccc2F)cc1=O)(C(=O)NO)S(C)(=O)=O,–,–,–,–,–,–,0.5 µg/mL,4.8 nM,0.03 µg/mL
COc1ccccc1-c1ccn(CC[C@](C)(C(=O)NO)S(C)(=O)=O)c(=O)c1,–,–,–,–,–,–,4 µg/mL,12 nM,0.125 µg/mL
COc1cccc(-c2ccn(CC[C@](C)(C(=O)NO)S(C)(=O)=O)c(=O)c2)c1,–,–,–,–,–,–,1 µg/mL,3.7 nM,0.03 µg/mL
COc1ncc(-c2ccc(-c3ccn(CC[C@](C)(C(=O)NO)S(C)(=O)=O)c(=O)c3)cc2)cn1,–,–,–,–,–,–,0.5 µg/mL,2 nM,0.03 µg/mL
COc1ccc(-c2ccn(CC[C@](C)(C(=O)NO)S(C)(=O)=O)c(=O)c2)cc1F,–,–,–,–,–,–,0.5 µg/mL,2 nM,0.03 µg/mL
C[C@@](CCn1ccc(-c2cccnc2)cc1=O)(C(=O)NO)S(C)(=O)=O,–,–,–,–,–,–,> 64 µg/mL,> 100 nM,2 µg/mL
C[C@@](CCn1ccc(-c2ccccc2)nc1=O)(C(=O)NO)S(C)(=O)=O,–,–,–,–,–,–,16 µg/mL,57 nM,0.5 µg/mL
Cc1cc(C)cc(-c2ccn(CC[C@](C)(C(=O)NO)S(C)(=O)=O)c(=O)c2)c1,–,–,–,–,–,–,2 µg/mL,5.3 nM,0.125 µg/mL
Cc1c(-c2ccccc2)ccn(CC[C@](C)(C(=O)NO)S(C)(=O)=O)c1=O,–,–,–,–,–,–,0.5 µg/mL,6.7 nM,0.015 µg/mL
COc1cccc(-c2ccn(CC[C@](C)(C(=O)NO)S(C)(=O)=O)c(=O)c2)c1F,–,–,–,–,–,–,0.5 µg/mL,1.8 nM,0.015 µg/mL
C[C@@](CCn1ccc(-c2ccccc2)c(F)c1=O)(C(=O)NO)S(C)(=O)=O,–,–,–,–,–,–,1 µg/mL,4.9 nM,0.015 µg/mL
C[C@@](CCn1ncc(-c2ccccc2)cc1=O)(C(=O)NO)S(C)(=O)=O,–,–,–,–,–,–,32 µg/mL,> 72 nM,1 µg/mL
CC(CCc1ncc(-c2ccccc2)cn1)(C(=O)NO)S(C)(=O)=O (racemic),–,–,–,–,–,–,> 64 µg/mL,> 100 nM,4 µg/mL
C[C@@](CCn1ccc(-c2ccc(-c3ccccn3)cc2)cc1=O)(C(=O)NO)S(C)(=O)=O,–,–,–,–,–,–,0.5 µg/mL,1.3 nM,0.015 µg/mL
